Positions of bridges follow the written chain, without caps; N, C: chain ends. Non-standard residues stand in square brackets, D forms with d. Residues, ends and D or L forms follow the SMILES beside them. *: point of attachment. Ileψ(thiazoline)Cys = CC[C@H](C)[C@H](N)C1=N[C@H](C(=O)*)CS1; dOrn = NCCC[C@@H](N)C(=O)O
Test system: exponential phase P. aeruginosa
Test: Susceptibility testing of exponential phase planktonic P. aeruginosa cells (suspension kill)
Type: cell-based, Pseudomonas aeruginosa
Settings: bacitracin 33 U/ml, 20 sec.-20 min.

With `CC[C@H](C)[C@H](N)C1=N[C@H](C(=O)N[C@@H](CC(C)C)C(=O)N[C@H](CCC(=O)O)C(=O)N[C@H](C(=O)N[C@H]2CCCCNC(=O)[C@H](CC(N)=O)NC(=O)[C@@H](CC(=O)O)NC(=O)[C@H](Cc3cnc[nH]3)NC(=O)[C@@H](Cc3ccccc3)NC(=O)[C@H]([C@@H](C)CC)NC(=O)[C@@H](CCCN)NC2=O)[C@@H](C)CC)CS1` [bacitracin] ({Ileψ(thiazoline)Cys}-L[dE]IK[dOrn]I[dF]H[dD]N; lactam 4-C) the reduction of viability was “ineffective and did not result in reduction of viability”.

From patent US10617715B2, “Methods of treating or preventing biofilm associated infections with free available chlorine free available chlorine water” (Sonoma Pharmaceuticals, Inc., priority 2008, dated 2020)
